Experimental findings from patent US11547767B2, “99mTc-EDDA/HYNIC-iPSMA as a radiopharmaceutical for detecting the overexpression of prostate-specific membrane antigen” (INSTITUTO NACIONAL DE INVESTIGACIONES NUCLEARES, priority 2016, dated 2023) are described below.

For data set [1] the following is noted: human, in vivo. The text has this: (§1) This image confirms, and is the main evidence, that because of its increased properties of affinity owing to the lipophilicity of the incorporated HYNIC molecule, ^99mTc-EDDA/HYNIC-iPSMA is able to equal the high imaging sensitivity of the PET radionuclides in the detection of tumoral lesions that overexpress PSMA.
Data set [2] concerns the target T1, PSMA overexpressed in prostate cancer cells (Homo sapiens, UniProt Q04609).
T1 construct: detect in vivo PSMA overexpressed in prostate cancer cells; from tissue; host or cells: tumours and metastases in prostate cancer patients (in vivo SPECT/PET)
The data set is described as follows: SPECT/PET imaging in patients with prostate cancer. It is filed as in vivo. The following applies: for detection of tumors and metastases (PET and SPECT image, FIG. 6): same patient with advanced metastatic prostate cancer given both radiopharmaceuticals.
Excerpt: as §1

A further data set deals with LNCaP tumors. More on the design: species or system mice. The following applies: mouse, in vivo.
Excerpt: as §1

The format of data set [3] is in vitro ADME, human. The protocol: (§2) The radiopharmaceutical remains stable with radiochemical purity greater than 95%, 24 h after labeling. In-vitro tests of stability in human serum show binding to serum proteins of 8.3±2.1% and high radiochemical stability (>90%).
Data set [4] is classed as physicochemical. The method, then: HYNIC-iPSMA (37.5 μg) was formulated as a lyophilized dosage form containing 10 mg of EDDA, 20 mg of tricine, 20 μg of stannous chloride and 50 mg of mannitol. This formulation, on being reconstituted with 1 mL of 0.2 M phosphate buffer solution, pH 7 and 1 mL of solution of sodium pertechnetate (^99mTcO4Na), obtained in situ from a generator of ^99Mo/^99mTc, produces the compound to be patented ^99mTc-EDDA/HYNIC-iPSMA (FIG. 1) with radiochemical purity greater than 98% determined by reverse-phase HPLC, which has the corresponding radiochromatogram (FIG. 3).
as §2

For data set [5], the target named is T2, PSMA protein (LNCaP cells) (Homo sapiens, UniProt Q04609).
T2 construct: endogenous in cells; host or cells: LNCaP
The data set is described as follows: affinity by studies of competence in PSMA-positive cancer cells (LNCaP). The class given is binding. The note with it: competition in LNCaP cells.

A further data set relates to balb-C laboratory mice. Briefly: toxicity in balb-C laboratory mice. The class given is in vivo. The note with it: dose of 40 mg/kg.
Excerpt: as §1

One may read the IC50 as the concentration that gives 50% inhibition. Read a low IC50 as higher potency.

Some results are limits rather than exact numbers.

T1 sequence (Q04609 whole entry): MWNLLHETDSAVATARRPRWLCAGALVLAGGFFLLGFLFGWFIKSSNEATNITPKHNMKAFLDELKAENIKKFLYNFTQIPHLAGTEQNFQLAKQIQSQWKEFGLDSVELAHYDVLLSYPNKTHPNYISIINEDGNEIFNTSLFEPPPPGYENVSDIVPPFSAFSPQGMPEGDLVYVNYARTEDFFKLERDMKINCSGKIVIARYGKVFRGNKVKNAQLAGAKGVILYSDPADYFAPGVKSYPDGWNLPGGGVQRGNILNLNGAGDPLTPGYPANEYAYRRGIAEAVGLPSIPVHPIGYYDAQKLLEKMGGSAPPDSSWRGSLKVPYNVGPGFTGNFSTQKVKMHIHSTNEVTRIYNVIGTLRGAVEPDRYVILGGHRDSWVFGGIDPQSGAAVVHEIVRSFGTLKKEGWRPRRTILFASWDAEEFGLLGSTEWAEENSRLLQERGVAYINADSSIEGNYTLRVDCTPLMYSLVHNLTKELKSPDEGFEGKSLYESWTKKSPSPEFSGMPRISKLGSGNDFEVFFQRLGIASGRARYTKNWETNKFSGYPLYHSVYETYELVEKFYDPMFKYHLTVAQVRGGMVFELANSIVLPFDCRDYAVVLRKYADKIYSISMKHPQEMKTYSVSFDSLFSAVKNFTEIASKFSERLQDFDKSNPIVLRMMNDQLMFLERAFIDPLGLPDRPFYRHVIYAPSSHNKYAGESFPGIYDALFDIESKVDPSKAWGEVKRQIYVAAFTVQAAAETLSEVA
T2 sequence (Q04609 whole entry): as above

“99mTc-ethylenediaminediacetic acid/hydrazinonicotinamide-inhibitor of prostate-specific membrane antigen [99mTc-EDDA/HYNIC-iPSMA]”: in data set [1], the “biokinetics (clearance and organ capture)” value is “rapid clearance from the blood with greater capture and renal excretion, lower hepatic capture and high capture in the parathyroid, salivary and lacrimal glands”; the mean effective dose was found to be 4±2 mSv. Besides, the “ability to detect in vivo overexpressed PSMA (SPECT image, FIG. 5)” value in data set [2] (patient with prostate cancer) is listed as “confirming the ability of the radiopharmaceutical to detect in vivo PSMA overexpressed in prostate cancer cells”. Further, in data set [2], the “detection of tumors and metastases (PET and SPECT image, FIG. 6)” value is “detect tumors and metastases of prostate cancer with high sensitivity”. Besides, in the data set with LNCaP tumors, the “capture in the tumors” value came to 8.7±1.3 % ID/g and the route of elimination entry is “mainly with elimination by the renal route”. In addition, in data set [3], the “radiochemical stability in human serum” value is listed as above 90%. Besides, the “radiochemical purity 24 h after labeling (stability)” value in data set [4] is “greater than 95%”.
Regarding `O=C([O-])CN1CCN(CC(=O)[O-])CCN(CC(=O)NC[C@H]2CC[C@H](C(=O)N[C@@H](Cc3ccc4ccccc4c3)C(=O)NCCCC[C@H](NC(=O)N[C@@H](CCC(=O)O)C(=O)O)C(=O)O)CC2)CCN(CC(=O)[O-])CC1.[68Ga+3]` [68Ga-PSMA-617, reference compound], the “detection of tumors and metastases (PET and SPECT image, FIG. 6)” value in data set [2] is “detect tumors and metastases of prostate cancer with high sensitivity”.
For the molecule `NNc1ccc(C(=O)N[C@@H](Cc2ccc3ccccc3c2)C(=O)NCCCC[C@H](NC(=O)N[C@@H](CCC(=O)O)C(=O)O)C(=O)O)cn1` [HYNIC-iPSMA, Glu-NH—CO—NH-Lys(β-naphthyl alanine)-HYNIC], the IC50 in data set [5] amounted to 2.9 ± 0.7 nM. In addition, in the data set on balb-C laboratory mice, the “toxicity or adverse effects” value is “did not display toxicity or adverse effects”.
